# According to article PMC4809600, “The Influence of Chronic Wound Extracts on Inflammatory Cytokine and Histatin Stability” (PLoS ONE, 2016):
# Where no end group is shown, it is not given here.
# What was measured:
# [1] = Stability in chronic wound extracts (CWE), capillary zone electrophoresis; type: in vitro ADME, human; conditions: 37°C, CZE; for Percentage intact, CWE 2h / Percentage intact, CWE 4h / Percentage intact, CWE 8h / Percentage intact, CWE 16h / Percentage intact, CWE 24h / Percentage intact, CWE 48h / Percentage intact, CWE 72h / Percentage intact, CWE 96h: 1 mg/ml in PBS mixed 1:1 with CWE (1 mg/ml protein, pool of 5 donors) in PBS, UV 200 nm, ratio to imidazole
# Excerpt: (§1) Debridement tissue was obtained from chronic ulcers of 15 patients with therapy resistant (arterio-venous) leg ulcers, according to procedures described earlier. In brief, moist, easily removable debridement material, essentially blood free, was collected from the ulcer surface and divided equally into two different solutions: (i) PBS (B. Braun, Melsungen, Germany), (ii) PBS with protease inhibitor cocktail (PIC) (1:100; v/v) (Sigma-Aldrich, Steinheim, Germany). The mixtures were gently shaken for 1 h at 4°C to elute proteins and centrifuged; the supernatants were stored at -80°C. Total protein content of the supernatant was measured using the BioRad Protein Assay (BioRad Laboratories, Hercules, California, USA) essentially as described by the supplier. Samples were diluted to 1 mg/ml protein and extracts of five different donors were pooled; three different pools of five donors were used in all experiments. The samples are referred to as chronic wound extracts (CWE).
# (§2) To determine the stability of the different peptides in CWE, histatins and cytokines were dissolved in PBS at 1 mg/ml. Histatins and cytokines were incubated in a 1:1 ratio with (i) PBS, (ii) CWE in PBS, or (iii) CWE in PBS containing PIC, in a total volume of 25 μl. Imidazole (Sigma-Aldrich) was added as an internal standard, with a final concentration of 100 μg/ml. The mixtures were incubated at 37°C, and samples were taken at 0, 24, 48, 72 and 96 h. For histatins containing mixtures, additional samples were taken after 2, 4, 8 and 16 h of incubation.
# (§3) The samples were analyzed with a BioFocus 2000 capillary zone electrophoresis system (Bio-Rad Laboratories, Hercules, CA, USA) equipped with an uncoated fused-silica capillary of internal diameter 50 μm and a length of 24 cm. Samples were loaded by pressure injection (5 psi/sec). Separation was performed at 10 kV (cathode at the detector side) at 20°C using 0.1 M phosphate buffer (pH 2.5) as electrolyte and monitored continuously at 200 nm. Peaks were quantified with the BioFocus Integrator software. In order to quantify the percentage of intact peptides remaining after incubation with CWE, the ratios of histatins, rhIL-6 or rhCXCL8 to internal standard was set at 100% at 0h, and the ratios at the other incubation time points were related to this.
# [2] = Stability in CWE with protease inhibitor cocktail (PIC), capillary zone electrophoresis; type: in vitro ADME, human; conditions: 37°C, CZE, 0 h = 100%; for Percentage intact, CWE + PIC 2h / Percentage intact, CWE + PIC 4h / Percentage intact, CWE + PIC 8h / Percentage intact, CWE + PIC 16h / Percentage intact, CWE + PIC 24h / Percentage intact, CWE + PIC 48h / Percentage intact, CWE + PIC 72h / Percentage intact, CWE + PIC 96h: 1 mg/ml in PBS mixed 1:1 with CWE (1 mg/ml protein, pool of 5 donors) in PBS containing PIC (final 1:140 v/v), ratio to imidazole
# Excerpt: as §1, §2, §3
sequence,measurement,setting,value
RKFHEKHHSHREFPFYGDYGSNYLYDN [Hst2],"Percentage intact, CWE 2h","[1]; 0 h = 100%, experiment 1 of 3",96.21%
same,"Percentage intact, CWE 2h","[1]; 0 h = 100%, experiment 2 of 3",97.4179%
same,"Percentage intact, CWE 2h","[1]; 0 h = 100%, experiment 3 of 3",80.1639%
same,"Percentage intact, CWE 4h","[1]; 0 h = 100%, experiment 1 of 3",78.5338%
same,"Percentage intact, CWE 4h","[1]; 0 h = 100%, experiment 2 of 3",80.0345%
same,"Percentage intact, CWE 4h","[1]; 0 h = 100%, experiment 3 of 3",54.5442%
same,"Percentage intact, CWE 8h","[1]; 8 h, 0 h = 100%, experiment 1 of 3",57.5027%
same,"Percentage intact, CWE 8h","[1]; 8 h, 0 h = 100%, experiment 2 of 3",66.6666%
same,"Percentage intact, CWE 8h","[1]; 8 h, 0 h = 100%, experiment 3 of 3",34.5662%
same,"Percentage intact, CWE 16h","[1]; 0 h = 100%, experiment 1 of 3",14.9136%
same,"Percentage intact, CWE 16h","[1]; 0 h = 100%, experiment 2 of 3",27.664%
same,"Percentage intact, CWE 16h","[1]; 0 h = 100%, experiment 3 of 3",7.724%
same,"Percentage intact, CWE 24h","[1]; 24 h, 0 h = 100%, experiment 1 of 3",4.675%
same,"Percentage intact, CWE 24h","[1]; 24 h, 0 h = 100%, experiment 2 of 3",5.495%
same,"Percentage intact, CWE 24h","[1]; 24 h, 0 h = 100%, experiment 3 of 3",8.834%
same,"Percentage intact, CWE 48h","[1]; 0 h = 100%, experiment 2 of 3",0.0001%
same,"Percentage intact, CWE 48h","[1]; 0 h = 100%, experiment 3 of 3",0.0001%
same,"Percentage intact, CWE 72h","[1]; 0 h = 100%, experiment 2 of 3",0.0001%
same,"Percentage intact, CWE 72h","[1]; 0 h = 100%, experiment 3 of 3",0.0001%
same,"Percentage intact, CWE 96h","[1]; 0 h = 100%, experiment 2 of 3",0.0001%
same,"Percentage intact, CWE 96h","[1]; 0 h = 100%, experiment 3 of 3",0.0001%
same,"remaining at 8 h, 0.5 mg/ml","[1]; human, chronic wound extracts (CWE), 1 mg/ml in PBS mixed 1:1 with CWE (1 mg/ml protein, pools of 5 donors), 8 h, 0 h = 100%, mean of 3 independent experiments, read-out: Original amount of peptide remaining intact after 8 h in CWE",53%
same,"remaining at 24 h, 0.5 mg/ml","[1]; human, chronic wound extracts (CWE), 1 mg/ml in PBS mixed 1:1 with CWE (1 mg/ml protein, pools of 5 donors), 24 h, 0 h = 100%, mean of 3 independent experiments, read-out: Original amount of peptide remaining intact after 24 h in CWE",6%
same,"metabolised at 8 h, 0.5 mg/ml","[1]; human, chronic wound extracts (CWE), incubation with chronic wound extracts, 8 h, read-out: Breakdown (degradation) in CWE in 8 h",~50%
same,"Percentage intact, CWE + PIC 2h",[2]; experiment 1 of 3,93.4426%
same,"Percentage intact, CWE + PIC 2h",[2]; experiment 2 of 3,92.5142%
same,"Percentage intact, CWE + PIC 2h",[2]; experiment 3 of 3,89.0301%
same,"Percentage intact, CWE + PIC 4h",[2]; experiment 1 of 3,91.5351%
same,"Percentage intact, CWE + PIC 4h",[2]; experiment 2 of 3,92.7977%
same,"Percentage intact, CWE + PIC 4h",[2]; experiment 3 of 3,86.7184%
same,"Percentage intact, CWE + PIC 8h",[2]; experiment 1 of 3,85.6684%
same,"Percentage intact, CWE + PIC 8h",[2]; experiment 2 of 3,89.4382%
same,"Percentage intact, CWE + PIC 8h",[2]; experiment 3 of 3,85.0239%
same,"Percentage intact, CWE + PIC 16h",[2]; experiment 1 of 3,76.054%
same,"Percentage intact, CWE + PIC 16h",[2]; experiment 2 of 3,80.3459%
same,"Percentage intact, CWE + PIC 16h",[2]; experiment 3 of 3,78.2959%
same,"Percentage intact, CWE + PIC 24h","[2]; 24 h, experiment 1 of 3",76.7074%
same,"Percentage intact, CWE + PIC 24h","[2]; 24 h, experiment 2 of 3",74.947%
same,"Percentage intact, CWE + PIC 24h","[2]; 24 h, experiment 3 of 3",84.5492%
same,"Percentage intact, CWE + PIC 48h",[2]; experiment 1 of 3,70.9832%
same,"Percentage intact, CWE + PIC 48h",[2]; experiment 2 of 3,66.2527%
same,"Percentage intact, CWE + PIC 48h",[2]; experiment 3 of 3,75.4922%
same,"Percentage intact, CWE + PIC 72h",[2]; experiment 1 of 3,69.8915%
same,"Percentage intact, CWE + PIC 72h",[2]; experiment 2 of 3,66.4949%
same,"Percentage intact, CWE + PIC 72h",[2]; experiment 3 of 3,68.9587%
same,"Percentage intact, CWE + PIC 96h",[2]; experiment 1 of 3,63.8972%
same,"Percentage intact, CWE + PIC 96h",[2]; experiment 2 of 3,62.3087%
same,"Percentage intact, CWE + PIC 96h",[2]; experiment 3 of 3,62.2105%
same,"remaining at 24 h, 0.5 mg/ml","[2]; human, with protease inhibitor cocktail (PIC), CWE with protease inhibitor cocktail (final 1:140 v/v), 24 h, mean of 3 independent experiments, read-out: Remaining fraction of intact peptide after 24 h in CWE + PIC",78%
